Test results from the CheMixHub viscosity set.

Test: xn = mol fraction of the nth substance listed
Settings: 101 kPa

OC(C(F)(F)F)C(F)(F)F + O
viscosity [mPa·s]
Settings | 298.15 K | 303.15 K | 313.15 K | 323.15 K
x1 = 0.002095 | 0.921 | 0.824 | 0.671 | 0.559
x1 = 0.004456 | 0.959 | 0.857 | 0.691 | 0.575
x1 = 0.008636 | 1.027 | 0.911 | 0.73 | 0.602
x1 = 0.01141 | 1.076 | 0.951 | 0.756 | 0.621
x1 = 0.0205 | 1.22 | 1.069 | 0.84 | 0.682
x1 = 0.0264 | 1.31 | 1.147 | 0.897 | 0.727
x1 = 0.04493 | 1.583 | 1.383 | 1.075 | 0.869
x1 = 0.06872 | 1.854 | 1.606 | 1.246 | 0.997
x1 = 0.09912 | 2.077 | 1.797 | 1.377 | 1.094
x1 = 0.1716 | 2.251 | 1.93 | 1.463 | 1.147
x1 = 0.2057 | 2.246 | 1.934 | 1.459 | 1.142
x1 = 0.3052 | 2.102 | 1.83 | 1.4 | 1.086
x1 = 0.4208 | 1.879 | 1.633 | 1.262 | 1.004
x1 = 0.5004 | 1.76 | 1.541 | 1.202 | 0.964
x1 = 0.6306 | 1.636 | 1.433 | 1.119 | 0.907
x1 = 0.6778 | 1.606 | 1.405 | 1.102 | 0.883
x1 = 0.7422 | 1.585 | 1.39 | 1.077 | 0.864
x1 = 0.8064 | 1.575 | 1.374 | 1.049 | 0.849
x1 = 0.8456 | 1.575 | 1.372 | 1.045 | 0.833

Oc1ccccc1 + O
viscosity [mPa·s]
Settings | 293.15 K | 303.15 K | 313.15 K | 323.15 K
x1 = 0.004 | 1.056 | 0.8342 | 0.6816 | 0.5696
x1 = 0.008 | 1.107 | 0.8703 | 0.7185 | 0.5898
x1 = 0.01 | 1.16 | 0.9071 | 0.737 | 0.611
x1 = 0.02 | 1.215 | 0.9485 | 0.7664 | 0.634
x1 = 0.021 | – | – | – | 0.66
x1 = 0.31 | – | 2.972 | 2.253 | 1.775
x1 = 0.36 | 4.372 | 3.153 | 2.383 | 1.858
x1 = 0.43 | 4.731 | 3.393 | 2.553 | 1.981
x1 = 0.52 | 5.273 | 3.742 | 2.792 | 2.164
x1 = 0.63 | 6.146 | 4.288 | 3.161 | 2.42
x1 = 0.78 | – | – | 3.77 | –
